Test system: MCF7
Assay: Anti-proliferation assay (ATPLite), Chalice synergy score
Assay type: cell-based
Conditions: Compound 1 in combination with second active agent, mean self-cross + 2σ threshold 3.07
Description: (§1) Cells were thawed from a liquid nitrogen preserved state.
(§2) The calculation for synergy score is provided below.
(§3) If T≧V0:100*[1−(T−V0)/(V−V0)]

Molecule	Synergy score
O=C(NC1CCNCC1)c1[nH]ncc1NC(=O)c1c(Cl)cccc1Cl [AT7519]	2.84
COc1ccc(C2=N[C@@H](c3ccc(Cl)cc3)[C@@H](c3ccc(Cl)cc3)N2C(=O)N2CCNC(=O)C2)c(OC(C)C)c1 [Nutlin-3]	2.05
CHIR98014	0.29

Test system: HCC70
Assay: as above
Assay type: cell-based
Conditions: Compound 1 in combination with second active agent; HCC-70; mean self-cross + 2σ threshold 3.45
Description: as §1, §2, §3

Molecule	Synergy score
O=C(NC1CCNCC1)c1[nH]ncc1NC(=O)c1c(Cl)cccc1Cl [AT7519]	0.86
COc1ccc(C2=N[C@@H](c3ccc(Cl)cc3)[C@@H](c3ccc(Cl)cc3)N2C(=O)N2CCNC(=O)C2)c(OC(C)C)c1 [Nutlin-3]	2.72
CHIR98014	0.82

Test system: BT-549
Assay: as above
Assay type: cell-based
Conditions: Compound 1 in combination with the named second active agent, 72 h, mean of n = 3 experiments in triplicate
Description: as §1, §2, §3

Molecule	Synergy score
O=C(NC1CCNCC1)c1[nH]ncc1NC(=O)c1c(Cl)cccc1Cl [AT7519]	4.33
COc1ccc(C2=N[C@@H](c3ccc(Cl)cc3)[C@@H](c3ccc(Cl)cc3)N2C(=O)N2CCNC(=O)C2)c(OC(C)C)c1 [Nutlin-3]	0.40
CHIR98014	0.49

Test system: Hs-578-T
Assay: as above
Assay type: cell-based
Conditions: Compound 1 in combination with second active agent, mean self-cross + 2σ threshold 4.09
Description: as §1, §2, §3

Molecule	Synergy score
O=C(NC1CCNCC1)c1[nH]ncc1NC(=O)c1c(Cl)cccc1Cl [AT7519]	5.16
COc1ccc(C2=N[C@@H](c3ccc(Cl)cc3)[C@@H](c3ccc(Cl)cc3)N2C(=O)N2CCNC(=O)C2)c(OC(C)C)c1 [Nutlin-3]	1.65
CHIR98014	5.48

Test system: HCC-1806
Assay: as above
Assay type: cell-based
Conditions: Compound 1 in combination with the named second active agent, 72 h, mean of n = 3 experiments in triplicate
Description: as §1, §2, §3

Molecule	Synergy score
O=C(NC1CCNCC1)c1[nH]ncc1NC(=O)c1c(Cl)cccc1Cl [AT7519]	1.01
COc1ccc(C2=N[C@@H](c3ccc(Cl)cc3)[C@@H](c3ccc(Cl)cc3)N2C(=O)N2CCNC(=O)C2)c(OC(C)C)c1 [Nutlin-3]	0.79
CHIR98014	1.56

Test system: HCC-1937
Assay: as above
Assay type: cell-based
Conditions: Compound 1 in combination with the named second active agent, 72 h, mean of n = 3 experiments in triplicate
Description: as §1, §2, §3

Molecule	Synergy score
O=C(NC1CCNCC1)c1[nH]ncc1NC(=O)c1c(Cl)cccc1Cl [AT7519]	2.04
COc1ccc(C2=N[C@@H](c3ccc(Cl)cc3)[C@@H](c3ccc(Cl)cc3)N2C(=O)N2CCNC(=O)C2)c(OC(C)C)c1 [Nutlin-3]	0.58
CHIR98014	0.63

Test system: MDA-MB-231
Assay: as above
Assay type: cell-based
Conditions: Compound 1 in combination with second active agent, mean self-cross + 2σ threshold 2.61
Description: as §1, §2, §3

Molecule	Synergy score
O=C(NC1CCNCC1)c1[nH]ncc1NC(=O)c1c(Cl)cccc1Cl [AT7519]	2.68
COc1ccc(C2=N[C@@H](c3ccc(Cl)cc3)[C@@H](c3ccc(Cl)cc3)N2C(=O)N2CCNC(=O)C2)c(OC(C)C)c1 [Nutlin-3]	0.27
CHIR98014	3.91

Test system: MDA-MB-468
Assay: as above
Assay type: cell-based
Conditions: Compound 1 in combination with second active agent, mean self-cross + 2σ threshold 4.66
Description: as §1, §2, §3

Molecule	Synergy score
O=C(NC1CCNCC1)c1[nH]ncc1NC(=O)c1c(Cl)cccc1Cl [AT7519]	1.98
CHIR98014	3.00

Test system: BT-474
Assay: as above
Assay type: cell-based
Conditions: Compound 1 in combination with the named second active agent, 72 h, mean of n = 3 experiments in triplicate
Description: as §1, §2, §3

Molecule	Synergy score
O=C(NC1CCNCC1)c1[nH]ncc1NC(=O)c1c(Cl)cccc1Cl [AT7519]	0.19
COc1ccc(C2=N[C@@H](c3ccc(Cl)cc3)[C@@H](c3ccc(Cl)cc3)N2C(=O)N2CCNC(=O)C2)c(OC(C)C)c1 [Nutlin-3]	0.34
CHIR98014	0.02

Test system: MDA-MB-157
Assay: as above
Assay type: cell-based
Conditions: Compound 1 in combination with second active agent, mean self-cross + 2σ threshold 4.68
Description: as §1, §2, §3

Molecule	Synergy score
O=C(NC1CCNCC1)c1[nH]ncc1NC(=O)c1c(Cl)cccc1Cl [AT7519]	5.37
COc1ccc(C2=N[C@@H](c3ccc(Cl)cc3)[C@@H](c3ccc(Cl)cc3)N2C(=O)N2CCNC(=O)C2)c(OC(C)C)c1 [Nutlin-3]	0.66
CHIR98014	3.17

Test system: HCC-1428
Assay: as above
Assay type: cell-based
Conditions: Compound 1 in combination with the named second active agent, 72 h, mean of n = 3 experiments in triplicate
Description: as §1, §2, §3

Molecule	Synergy score
O=C(NC1CCNCC1)c1[nH]ncc1NC(=O)c1c(Cl)cccc1Cl [AT7519]	1.58
COc1ccc(C2=N[C@@H](c3ccc(Cl)cc3)[C@@H](c3ccc(Cl)cc3)N2C(=O)N2CCNC(=O)C2)c(OC(C)C)c1 [Nutlin-3]	0.33
CHIR98014	0.72

Test system: MDA-MB-436
Assay: as above
Assay type: cell-based
Conditions: Compound 1 in combination with second active agent, mean self-cross + 2σ threshold 1.91
Description: as §1, §2, §3

Molecule	Synergy score
O=C(NC1CCNCC1)c1[nH]ncc1NC(=O)c1c(Cl)cccc1Cl [AT7519]	2.57
COc1ccc(C2=N[C@@H](c3ccc(Cl)cc3)[C@@H](c3ccc(Cl)cc3)N2C(=O)N2CCNC(=O)C2)c(OC(C)C)c1 [Nutlin-3]	0.50
CHIR98014	0.64

Test system: HCC-1187
Assay: as above
Assay type: cell-based
Design: scale not given here
Conditions: Compound 1 in combination with the named second active agent, 72 h, mean of n = 3 experiments in triplicate
Description: as §1, §2, §3

Molecule	Synergy score
COc1ccc(C2=N[C@@H](c3ccc(Cl)cc3)[C@@H](c3ccc(Cl)cc3)N2C(=O)N2CCNC(=O)C2)c(OC(C)C)c1 [Nutlin-3]	2.08
CHIR98014	3.13

Test system: HCC-1500
Assay: as above
Assay type: cell-based
Design: scale not given here
Conditions: Compound 1 in combination with the named second active agent, 72 h, mean of n = 3 experiments in triplicate
Description: as §1, §2, §3

Molecule	Synergy score
O=C(NC1CCNCC1)c1[nH]ncc1NC(=O)c1c(Cl)cccc1Cl [AT7519]	0.03
COc1ccc(C2=N[C@@H](c3ccc(Cl)cc3)[C@@H](c3ccc(Cl)cc3)N2C(=O)N2CCNC(=O)C2)c(OC(C)C)c1 [Nutlin-3]	2.54

Test system: BT-20
Assay: as above
Assay type: cell-based
Design: scale not given here
Conditions: Compound 1 in combination with the named second active agent, 72 h, mean of n = 3 experiments in triplicate
Description: as §1, §2, §3

Molecule	Synergy score
O=C(NC1CCNCC1)c1[nH]ncc1NC(=O)c1c(Cl)cccc1Cl [AT7519]	4.95
COc1ccc(C2=N[C@@H](c3ccc(Cl)cc3)[C@@H](c3ccc(Cl)cc3)N2C(=O)N2CCNC(=O)C2)c(OC(C)C)c1 [Nutlin-3]	0.27
CHIR98014	0.17

From US9737535B2, “Methods for treating cancer using TOR kinase inhibitor combination therapy comprising administering substituted pyrazino[2,3-b]pyrazines” (Signal Pharmaceuticals, LLC, priority 2014, dated 2017)
